According to article PMC12133982, “Predominant T-cell epitopes of SARS-CoV-2 restricted by multiple prevalent HLA-B and HLA-C allotypes in Northeast Asia” (Frontiers in Immunology, 2025):
Several values for one entry are separate records, joined by “and”; a condition that tells them apart may be missing. Equal entries are not always repeated. Peptide text beside a SMILES is read from it.

Columns and labels:
HLA-B1502 = HLA-B1502 (Homo sapiens, UniProt P01889, A329T/A93T/A95T/C349S/D201E/D98Y/E187L/E204Q/E69M/E70A/H137Y/K202T/L119I/Q94N/R155S/R180L/S121R/S35A/S48A/T118I/V306I/V36M/Y140S/Y91S); assay: Competitive peptide binding assay, CIR-B1502; settings: HMy2.CIR-B1502 cells, reference Cy5-[…], class from inhibition at 5 and 15 μM, flow cytometry MFI; read-out: Binding affinity with HLA-B1502
Protocol: (§1) Then, competitive peptide binding assays were performed.

HLA-B1501 = HLA-B1501 (Homo sapiens, UniProt P01889, A329T/A93T/A95T/C349S/D201E/D98Y/E187L/E204Q/E69M/E70A/K202T/N87E/Q94N/R155S/R180W/S121R/S35A/S48A/V306I/V36M/Y140S/Y91S); assay: Competitive peptide binding assay, CIR-B1501; settings: HMy2.CIR-B1501 cells, reference Cy5-[…], class from inhibition at 5 and 15 μM, flow cytometry MFI; read-out: Binding affinity with HLA-B1501
Protocol: as §1

HLA-B3501 = HLA-B3501 (Homo sapiens, UniProt P01889, A329T/A93T/A95T/C349S/D201E/D98Y/E176V/E187L/E204Q/E69T/I218V/K202T/L119I/Q94N/R155S/R180L/S121R/S35A/S48A/T118I/V127L/V306I/V36M/Y140S/Y91F); assay: Competitive peptide binding assay, CIR-B3501; settings: HMy2.CIR-B3501 cells, reference Cy5-[…], class from inhibition at 5 and 15 μM, flow cytometry MFI; read-out: Binding affinity with HLA-B3501
Protocol: as §1

HLA-B4403 = HLA-B4403 (Homo sapiens, UniProt P01889, A223V/A65T/A93T/A95T/D201E/D98Y/E176V/E187L/E204Q/E69K/G107R/H137Y/K202T/L105A/L119I/N104T/N87E/Q56L/Q94N/R106L/R155S/R180L/S101N/S121R/S35A/S48T/T118I/V36M/W191S/Y140D/Y91S); assay: Competitive peptide binding assay, CIR-B4403; settings: HMy2.CIR-B4403 cells, reference Cy5-CYMEAVAL, class from inhibition at 5 and 15 μM, flow cytometry MFI; read-out: Binding affinity with HLA-B4403
Protocol: as §1

HLA-B1302 = HLA-B1302 (Homo sapiens, UniProt P01889, A65T/A93T/A95T/D138N/D201E/D98Y/E176V/E204Q/E69M/E70A/G107R/K202T/L105A/L119W/N104T/N87E/Q94N/R106L/R155S/R169L/R180L/S101N/S121T/S35A/S48T/V127L/V36M/Y140L/Y91S); assay: Competitive peptide binding assay, CIR-B1302; settings: HMy2.CIR-B1302 cells, reference Cy5-MMWYWGPSL, class from inhibition at 5 and 15 μM, flow cytometry MFI; read-out: Binding affinity with HLA-B1302
Protocol: as §1

HLA-B4601 = HLA-B4601 (Homo sapiens, UniProt P01889, A329T/A93R/C349S/D201E/E100V/E187L/E204Q/E69M/E70A/I90K/K202T/N87E/R155S/R180W/S121R/S35A/S48A/V306I/V36M/Y140S); assay: Competitive peptide binding assay, CIR-B4601; settings: HMy2.CIR-B4601 cells, reference Cy5-[…], class from inhibition at 5 and 15 μM, flow cytometry MFI; read-out: Binding affinity with HLA-B4601
Protocol: as §1

HLA-B5801 = HLA-B5801 (Homo sapiens, UniProt P01889, A329T/C349S/D201E/D98Y/E176V/E187L/E204Q/E69T/G107R/I218V/I90N/K202T/L105A/L119I/N104I/N87E/Q89R/Q94S/R106L/R155S/R180L/R86G/S101N/S121R/S35A/S48A/T118I/V127L/V306I/V36M/Y140S/Y91M); assay: Competitive peptide binding assay, CIR-B5801; settings: HMy2.CIR-B5801 cells, reference Cy5-[…], class from inhibition at 5 and 15 μM, flow cytometry MFI; read-out: Binding affinity with HLA-B5801
Protocol: as §1

HLA-B1301 = HLA-B1301 (Homo sapiens, UniProt P01889, A65T/A93T/A95T/D138N/D201E/D98Y/E176V/E204Q/E69M/E70A/G107R/K202T/L105A/L119I/N104T/N87E/Q94N/R106L/R155S/R169L/R180L/S101N/S121R/S35A/S48T/T118I/V127L/V36M/Y140L/Y91S); assay: Competitive peptide binding assay, CIR-B1301; settings: HMy2.CIR-B1301 cells, reference Cy5-[…], class from inhibition at 5 and 15 μM, flow cytometry MFI; read-out: Binding affinity with HLA-B1301
Protocol: as §1

HLA-B0702 = biological target: T1, HLA-B0702 (Homo sapiens, UniProt P01889); assay: Competitive peptide binding assay, CIR-B0702; settings: HMy2.CIR-B0702 cells, reference Cy5-[…], class from inhibition at 5 and 15 μM, flow cytometry MFI
T1 construct: expressed in transfected cells; host or cells: HMy2.CIR
Protocol: as §1

HLA-B4001 = HLA-B4001 (Homo sapiens, UniProt P01889, A65T/A93T/A95T/D138N/D98Y/E176V/E69K/N87E/Q56L/Q94N/R180L/S121R/S35A/S48T/T167S/V36M/W171L/Y33H/Y91S); assay: Competitive peptide binding assay, CIR-B4001; settings: HMy2.CIR-B4001 cells, reference Cy5-[…], class from inhibition at 5 and 15 μM, flow cytometry MFI; read-out: Binding affinity with HLA-B4001
Protocol: as §1

Row | SMILES | IC50 (HLA-B1502) [µM] | IC50 (HLA-B1501) [µM] | IC50 (HLA-B3501) [µM] | IC50 (HLA-B4403) [µM] | IC50 (HLA-B1302) | IC50 (HLA-B4601) [µM] | IC50 (HLA-B5801) [µM] | IC50 (HLA-B1301) [µM] | IC50 (HLA-B0702) [µM] | IC50 (HLA-B4001) [µM]
1 | CC[C@H](C)[C@H](N)C(=O)N[C@@H](C)C(=O)N[C@@H](CCSC)C(=O)N[C@@H](C)C(=O)N[C@@H](CS)C(=O)N[C@@H](CC(C)C)C(=O)N[C@H](C(=O)NCC(=O)N[C@@H](CC(C)C)C(=O)O)C(C)C [Epitope Y253] (H-IAMACLVGL-OH; N-terminus and C-terminus assumed) | > 15 | > 15 | > 15 | 5 to 15 | 5 to 15 µM | < 5 | > 15 | 5 to 15 |  | 
2 | CSCC[C@H](NC(=O)[C@H](C)NC(=O)[C@@H]1CCCN1C(=O)[C@H](CC(=O)O)NC(=O)[C@H](C)NC(=O)[C@H](C)NC(=O)[C@H](Cc1ccc(O)cc1)NC(=O)[C@@H](NC(=O)[C@@H](N)CC(C)C)C(C)C)C(=O)O [Epitope Y165] (H-LVYAADPAM-OH; N-terminus and C-terminus assumed) | 5 to 15 | > 15 | < 5 |  |  | 5 to 15 | > 15 | 5 to 15 | 5 to 15 | > 15
3 | CC[C@H](C)[C@H](NC(=O)[C@H](CCCNC(=N)N)NC(=O)[C@H](CC(C)C)NC(=O)[C@H](CCSC)NC(=O)[C@H](CC(N)=O)NC(=O)[C@@H]1CCCN1C(=O)[C@H](CCSC)NC(=O)[C@H](C)NC(=O)[C@@H](N)CCCNC(=N)N)C(=O)O [Epitope Y77] (H-RAMPNMLRI-OH; N-terminus and C-terminus assumed) |  |  | > 15 | > 15 | < 5 µM | 5 to 15 | 5 to 15 | > 15 |  | 
4 | CC[C@H](C)[C@H](NC(=O)[C@@H](NC(=O)[C@H](CC(C)C)NC(=O)[C@H](CCC(=O)O)NC(=O)[C@H](CO)NC(=O)[C@H](CCC(=O)O)NC(=O)[C@@H](N)CC(C)C)C(C)C)C(=O)NCC(=O)N[C@@H](C)C(=O)N[C@H](C(=O)O)C(C)C [Epitope Y211] (H-LESELVIGAV-OH; N-terminus and C-terminus assumed) | > 15 | 5 to 15 | > 15 |  | > 15 µM | > 15 | > 15 | > 15 | > 15 | 5 to 15
5 | CC[C@H](C)[C@H](NC(=O)[C@H](CC(C)C)NC(=O)[C@H](CS)NC(=O)CNC(=O)[C@H](C)NC(=O)[C@H](CCCNC(=N)N)NC(=O)[C@@H](NC(=O)[C@H](CCC(N)=O)NC(=O)[C@@H](N)Cc1ccccc1)[C@@H](C)O)C(=O)O [Epitope Y89] (H-FQTRAGCLI-OH; N-terminus and C-terminus assumed) |  | > 15 | > 15 | > 15 | < 5 µM and > 15 µM | > 15 | > 15 |  |  | 5 to 15
6 | CC[C@H](C)[C@H](NC(=O)[C@H](Cc1ccc(O)cc1)NC(=O)[C@H](CCC(N)=O)NC(=O)[C@H](CCC(=O)O)NC(=O)[C@@H](N)Cc1ccc(O)cc1)C(=O)N[C@@H](CCCCN)C(=O)N[C@@H](Cc1c[nH]c2ccccc12)C(=O)N1CCC[C@H]1C(=O)N[C@@H](Cc1c[nH]c2ccccc12)C(=O)O [Epitope Y230] (H-YEQYIKWPW-OH; N-terminus and C-terminus assumed) | > 15 | > 15 | > 15 | < 5 |  | > 15 | 5 to 15 |  |  | > 15
